Patent US3984411A, “Pyrimidines” (Societe Generale de Recherches et d'Applications …, priority 1975, dated 1976)
Where a name gives a salt, the structure may show the parent alone. Read-outs that look alike come from different tables or passages of the source.

Experiments:
[1] = Toxicity (LD 50) in mice by intravenous and oral application; format: in vivo; conditions: mouse, in vivo, cumulative quantal method
Description: (§1) The toxicities of the compounds according to the invention have been determined on mice CD 1 (Charles RIVER) by intravenous and oral applications. The LD 50, calculated by the cumulative quantal method of J. J. Reed and H. Muench, Am.

cholesterolemia = assay: Hypocholesterolemiant effect in the rat, oral, 4 days treatment; format: in vivo, rat CD (Charles RIVER); conditions: for hypocholesterolemiant activities (in words): oral, 4 days
Description: The hypocholesterolemiant effects of the products according to the invention have been studied on the rat CD (Charles RIVER) by oral application. The animals, divided into groups of 10, are treated daily by gastric probe for 4 consecutive days. Four hours after the last administration, the rats are killed and their blood is collected in order to proceed to the determination of the amount of cholesterol according to the method of J. Levine and B. Zak, Clin. Acta, 10, 381 (1964).
The activity of the substances is evaluated by calculating the percentage variation of the average amount of cholesterol of the animals treated with respect to that of the control animals. Then the statistical significance of the differences observed is determined by application of the STUDENT test.

glycemia = assay: Hypoglycemiant effect in the rat, oral, 4 days treatment; format: in vivo, male rat CD (Charles RIVER); conditions: for hypoglycemiant effects (in words): oral, 4 days
Description: The hypoglycemiant properties have been studied on the male rat CD (Charles RIVER) of 200-250 g, of which the glycemia is controlled after 4 days of daily treatment by oral application. The serum glucose is determined by the method of W. S. Hoffman, J. Biol. Chem., 120, 51 (1937). Groups of 10 rats are used and the hypoglycemiant activity is expressed by the percentage variation of the average glycemia of the treated animals compared with that of the controls. The statistical significance of the differences observed is determined by application of the STUDENT test.

[2] = tested on: mice CD 1 (Charles RIVER); assay: Toxicity (LD 50) in mice by intravenous and oral application; format: in vivo; conditions: mice CD 1, oral; cumulative quantal method
Description: as §1

[3] = mice CD 1, intravenous, read-out: Intense toxicities to mice (LD 50), intravenous
[4] = mice CD 1, oral, read-out: Intense toxicities to mice (LD 50), oral
[5] = 100 mg/kg taken orally, significant at p = 0.001, except Example 18 at p = 0.05
[6] = 100 mg/kg taken orally, significant at p = 0.001
[7] = 300 mg/kg taken orally, significant at p = 0.001
[8] = 50 mg/kg taken orally, all values significant at p = 0.001

| Structure (SMILES) | LD50 [1, 3] | LD50 [1, 4] | Variation of the cholesterolemia in % with respect to the controls after 4 days treatment (cholesterolemia; [5]) | hypoglycemiant effects (in words) (glycemia) | Intense toxicities to mice (LD 50), oral [2] | hypocholesterolemiant activities (in words) (cholesterolemia) | Percentage variation of the glycemia compared with the controls after 4 days treament (glycemia; [7]) | other results |
| --- | --- | --- | --- | --- | --- | --- | --- | --- |
| CN1CCC(Oc2nc(N3CCOCC3)nc(OC3CCN(C)CC3)c2Cc2ccccc2)CC1 [Example 21, 2-morpholino-4,6-di[(N-methyl-4'-piperidyl)oxy]-5-benzyl-pyrimidine] | 40 mg/kg | ~800 mg/kg | -39% | especially large hypoglycemiant effects | – | – | – | Percentage variation of the glycemia compared with the controls after 4 days treament (glycemia; [6]): -27% |
| COc1c(OC2CCN(C)CC2)nc(N2CCOCC2)nc1OC1CCN(C)CC1 [Example 14, 2-morpholino-4,6-di[(N-methyl-4'-piperidyl)oxy]-5-methoxy-pyrimidine] | 67 mg/kg | – | – | – | atoxic at 900 | – | – | Percentage variation of the glycemia compared with the controls after 4 days treament (glycemia; 200 mg/kg taken orally, significant at p = 0.001): -24% |
| CN1CCC(Oc2nc(N3CCOCC3)nc(OC3CCN(C)CC3)c2Oc2ccc(Cl)cc2)CC1 [Example 20, 2-morpholino-4,6-di[(N-methyl-4'-piperidyl)oxy]-5-p-chlorophenoxy-pyrimidine] | – | > 900 mg/kg | -47% | especially large hypoglycemiant effects | – | remarkable hypocholesterolemiant activities | -27% | – |
| CCc1c(OC2CCN(C)CC2)nc(N2CCOCC2)nc1OC1CCN(C)CC1 [Example 16, 2-morpholino-4,6-di[(N-methyl-4'-piperidyl)oxy]-5-ethyl-pyrimidine dihydrobromide] | 54 mg/kg | ~525 mg/kg | -60% | – | – | remarkable hypocholesterolemiant activities | – | – |
| Cc1c(OC2CCN(C)CC2)nc(N2CCOCC2)nc1OC1CCN(C)CC1 [Example 15, 2-moropholino-4,6-di[(N-methyl-4'-piperidyl)oxy]-5-methyl-pyrimidine] | 81 mg/kg | – | – | – | atoxic at 900 | remarkable hypocholesterolemiant activities | – | Variation of the cholesterolemia in % with respect to the controls after 4 days treatment (cholesterolemia; [8]): -31%; Percentage variation of the glycemia compared with the controls after 4 days treament (glycemia; 50 mg/kg taken orally, significant at p = 0.05): -12% |
| CCCCc1c(OC2CCN(C)CC2)nc(N2CCOCC2)nc1OC1CCN(C)CC1 [Example 17, 2-morpholino-4,6-di[(N-methyl-4'-piperidyl)oxy]-5-n-butyl-pyrimidine dihydrochloride] | – | ~225 mg/kg | -36% | – | – | – | – | – |
| CN1CCC(Oc2cc(OC3CCN(C)CC3)nc(N3CCOCC3)n2)CC1 [Example 23, 2-morpholino-4,6-di[(N-methyl-4'-piperidyl)oxy]-pyrimidine] | – | – | – | – | atoxic at 900 | – | – | Percentage variation of the glycemia compared with the controls after 4 days treament (glycemia; 400 mg/kg taken orally, significant at p = 0.001): -20% |
| CN1CCC(Oc2nc(N3CCOCC3)nc(OC3CCN(C)CC3)c2Cl)CC1 [Example 22, 2-morpholino-4,6-di[(N-methyl-4'-piperidyl)oxy]-5-chloro-pyrimidine] | – | – | -45% | – | atoxic at 900 | remarkable hypocholesterolemiant activities | – | Variation of the cholesterolemia in % with respect to the controls after 4 days treatment (cholesterolemia; [8]): -19% |
| CCOc1c(OC2CCN(C)CC2)nc(N2CCOCC2)nc1OC1CCN(C)CC1 [Example 19, 2-morpholino-4,6-di[(N-methyl-4'-piperidyl)oxy]-5-ethoxy-pyrimidine dihydrochloride] | 70 mg/kg | ~600 mg/kg | – | especially large hypoglycemiant effects | – | – | -43% | – |
| CN1CCC(Oc2nc(N3CCOCC3)nc(OC3CCN(C)CC3)c2-c2ccc(Cl)cc2)CC1 [Example 18, 2-morpholino-4,6-di[(N-methyl-4'-piperidyl)oxy]-5-p-chlorophenyl-pyrimidine] | 20 mg/kg | ~600 mg/kg | -14% | especially large hypoglycemiant effects | – | – | -35% | Variation of the cholesterolemia in % with respect to the controls after 4 days treatment (cholesterolemia; [7]): -44%; Percentage variation of the glycemia compared with the controls after 4 days treament (glycemia; [6]): -29% |
